Measurements reported in US20210121466A1, “COMBINATION THERAPY OF A CHIMERIC ANTIGEN RECEPTOR (CAR) T CELL THERAPY AND A KINASE INHIBITOR” (Juno Therapeutics, Inc., priority 2018, published 2021).

Legend:
anti-CD19 CAR T cells [1] = experiment: Cytolytic activity of anti-CD19 CAR T cells co-cultured with K562-CD19 target cells in the presence of ibrutinib (IncuCyte); format: cell-based, human
Source text: (§1) To generate CAR-expressing T cells, T cells were isolated by immunoaffinity-based enrichment from three healthy human donor subjects, and cells from each donor were activated and transduced with a viral vector encoding an anti-CD19 CAR. The CAR contained an anti-CD19 scFv, an Ig-derived spacer, a human CD28-derived transmembrane domain, a human 4-1BB-derived intracellular signaling domain and a human CD3 zeta-derived signaling domain. The nucleic acid construct encoding the CAR also included a truncated EGFR (tEGFR) sequence for use as a transduction marker, separated from the CAR sequence by a self-cleaving T2A sequence.
(§2) CAR-expressing CD4+ and CD8+ cells were mixed 1:1 for each donor, individually, and the pooled cells for each donor assessed in vitro under various conditions.
The target cells were labeled with NucLight Red (NLR), to permit tracking of target cells by microscopy.

anti-CD19 CAR T cells [2] = experiment: TH1 phenotype (CD4+CXCR3+CRTH2-) and activation/memory markers by flow cytometry during serial restimulation; format: cell-based, human
Description: (§3) The ability of cells to expand ex vivo following repeated stimulations in some aspects can indicates capacity of CAR-T cells to persist (e.g., following initial activation) and/or is indicative of function and/or fitness in vivo (Zhao et al. (2015) Cancer Cell, 28:415-28). Anti-CD19 CAR+ T cells generated as described above were plated in triplicate at 100,000 cells/well on 96 well Poly-D-Lysine coated plates, and irradiated target cells (K562-CD19) were added at an effector to target ratio of 2.5:1. […] A total of 7 rounds of stimulation during a 25 day culture period were carried out.
A serial restimulation assay was performed as described above and cells were harvested at various times and analyzed by flow cytometry to assess percentage of TH1-phenotype (assessed as CD4+CXCR3+CRTH2−) T cells or TH2-phenotype (assessed as CD4+CXCR3−CRTH2+).

CAR+ T cells = experiment: Ex vivo immunophenotyping (flow cytometry, t-SNE) of CAR+ T cells at day 12 post CAR T transfer; format: in vivo, NSG mice
Description: (§4) NSG mice described in Example 2 were intravenously injected on day 0 with 5×10^5 Nalm-6 cells expressing firefly luciferase. […] To permit assessment of the effect of a combination therapy with the inhibitor, a suboptimal dose of anti-CD19 CAR T cells was i.v. injected into the mice at 5×10^5/mouse at day 5. As a control, mice were administered the vehicle control without administration of the CAR-T cells or inhibitor.
Flow cytometry histograms showing the individual expression profiles of CD4, CD8, CD62L, CD45RA, CD44 and CXCR3 from the 4 gated t-SNE in FIG. 8B overlaid on the expression of the total population (shaded) is shown in FIG. 8C.

[3] = test system: CD19+ Nalm-6 disseminated tumor line; experiment: Disseminated Nalm-6 tumor xenograft mouse model, ibrutinib by daily oral gavage; format: in vivo, NSG mice
Source text: On day zero (0), NSG mice were intravenously injected with 5×10^5 Nalm-6 cells expressing firefly luciferase. […] To permit assessment of the effect of a combination therapy with the inhibitor, a suboptimal dose of anti-CD19 CAR T cells from two different donors (generated by transducing cells derived from samples of human donor subjects essentially as described above) were i.v. injected into each mouse at a concentration of 5×10^5 CAR+ T cells per mouse at day 5. […] Eight (N=8) mice per group were monitored.
Following treatment as described above, tumor growth over time was measured by bioluminescence imaging and the average radiance (p/s/cm^2/sr) was measured. Survival of treated mice also was assessed over time.

anti-CD19 CAR T cells [4] = experiment: Gene expression analysis (Nanostring Immune V2 panel) after 18 days of serial stimulation; format: cell-based, human; settings: 50 nM or 500 nM; day 18 of serial restimulation
Description: as §3
At day 18 after serial stimulation, RNA was isolated from anti-CD19 CAR T cells and Nanostring Immune V2 panel tests were run across 594 genes. The log 2 (fold change) of each gene was plotted against the −log 10(Raw p-value) derived from ANOVA tests of unscaled housekeeping gene normalized to count data for treatment versus control.

[5] = test system: CD19+ Nalm-6 disseminated tumor line; experiment: Disseminated Nalm-6 tumor xenograft mouse model, ibrutinib in drinking water; format: in vivo, NSG mice
Description: as §4

anti-CD19 CAR T cells [6] = experiment: Expression of CAR-T cell surface markers by flow cytometry after stimulation with irradiated K562-CD19 cells; format: cell-based, human
Source text: as §1, §2
CAR-T cells generated as described above were plated at 100,000 cells/well on 96 well Poly-D-Lysine coated plates. Irradiated K562-CD19 target cells were added at an effector to target ratio of 2.5:1. […] Cells were harvested at 1, 2, 3, and 4 days, and were analyzed by flow cytometry for T cell activation and differentiation surface markers CD69, CD107a, PD-1, CD25, CD38, CD39, CD95, CD62L, CCR7, CD45RO and for truncated EGFR (a surrogate marker for CAR-transduced cells).

anti-CD19 CAR T cells [7] = experiment: Serial restimulation assay of anti-CD19 CAR+ T cells with K562-CD19 target cells; format: cell-based, human; settings: day 18; both concentrations (50, 500 nM); two of three donors
Source text: as §1, §2, §3

anti-CD19 CAR T cells [8] = experiment: Cytokine production in supernatants of CAR-T / K562-CD19 co-cultures (MSD); format: cell-based, human
Source text: as §1, §2
CAR-T cells generated as described above were plated at 100,000 cells/well on 96 well Poly-D-Lysine coated plates to which irradiated target cells (K562-CD19) were added at an effector to target ratio of 2.5:1. […] Culture supernatants were harvested every 24 hrs at days 1, 2, 3 and 4, and IFNγ, IL-2, TNFα, IL-4 and IL-10 were measured from the culture supernatants using cytokine kits from Meso Scale Discovery (MSD).

[9] = in vivo; cited from earlier work
[10] = test system: anti-CD19 CAR-T cells from DLBCL subjects; experiment: Serial restimulation and cytolytic function of anti-CD19 CAR-T cells manufactured from DLBCL patients; format: cell-based, human
Source text: Cells were subjected to serial restimulation over a 21 day culture period and monitored for cell expansion and cytotoxic activity.

[11] = test system: CAR+ T cells and Nalm-6 tumor cells; experiment: Levels of CAR+ T cells and tumor cells in blood, bone marrow and spleen of Nalm-6 bearing mice; format: in vivo, NSG mice
Description: as §4
Samples were analyzed to assess presence and levels of CAR T cells (based on expression of the surrogate marker using an anti-EGFR antibody) and/or tumor cells at days 7, 12, 19 and 26 post CAR+ T cell transfer.

CAR-expressing T cells = experiment: RNA-Seq molecular signature of CAR-expressing T cells after 18 days of serial stimulation; format: cell-based, human
Description: RNA isolation was performed using the RNEasy Micro Kit (Qiagen). Samples were sequenced and RNASeq reads were mapped to the human genome (GRCh38) and aligned to the GENCODE release 24 gene model. […] Differentially expressed genes were identified by imposing a log2 fold change cutoff of 0.5 and a Benjamini-Hochberg adjusted false discovery rate (FDR) cutoff of 0.05.

CAR T cells = experiment: CD62L expression by flow cytometry after 18 days of serial stimulation; format: cell-based, human; settings: donors 2 and 3
Description: as §3

## C=CC(=O)N1CCC[C@@H](n2nc(-c3ccc(Oc4ccccc4)cc3)c3c(N)ncnc32)C1 [ibrutinib, 1-[(3R)-3-[4-amino-3-(4-phenoxyphenyl)pyrazolo[3,4-d]pyrimidin-1-yl]piperidin-1-yl]prop-2-en-1-one]
anti-CD19 CAR T cells [1]; all concentrations tested (0.5-5000 nM) during the co-culture
  cytolytic function of the anti-CD19 CAR T cells: did not inhibit
anti-CD19 CAR T cells [1]; one donor, P<0.0001
  target cell killing: modestly increased target cell killing
anti-CD19 CAR T cells [1]; two donors, concentration increased up to 500 nM, E:T 2.5:1, 4 days
  cytolytic activity of anti-CD19 CAR-expressing T cells (target cell killing normalized to untreated control, AUC): did not significantly impact
anti-CD19 CAR T cells [2]; 500 nM, P<0.01
  percentage of TH1 cells: further enhanced
anti-CD19 CAR T cells [2]; CAR T cells from the serial stimulation assay
  additional CAR T activation or memory markers: No significant effects
anti-CD19 CAR T cells [2]; after serial stimulation, greater with increasing concentrations
  percentage of CAR+ T cells with TH1 phenotype: increase the percentage
CAR+ T cells; bone marrow, day 12, ibrutinib-treated animals
  population 4 as percentage of CAR-T cells: 15.2%
CAR+ T cells; day 12, CAR-T cells with ibrutinib vs control
  phenotype of CAR+ T cells isolated from bone marrow: phenotypic changes were observed
CAR+ T cells; day 12 post CAR T transfer
  CD8+CD44hi CXCR3hi CD45RAlo CD62Lhi (population 2) and CD4+CD44hi CXCR3int CD45RAhi CD62Lhi (population 4) in bone marrow vs control mice: increase
[3]; greater time points, two donors, ibrutinib with CAR T, p<0.001
  survival vs CAR T and vehicle: significantly increased survival
[3]; ibrutinib 25 mg/kg qd P.O. with CAR-T cells
  median survival vs suboptimal anti-CD19 CAR T cell dose + vehicle: increased median survival
[3]; ibrutinib 25 mg/kg qd P.O. with suboptimal dose of anti-CD19 CAR T cells, p<0.001, p<0.0001
  tumor growth vs CAR-T cells and vehicle: significantly decreased tumor growth
[3]; ibrutinib alone, 25 mg/kg qd P.O., ibrutinib-resistant model
  tumor burden (average radiance) vs vehicle: no effect on tumor burden
anti-CD19 CAR T cells [4]
  gene expression (594 genes): did not significantly alter gene expression
[5]; ibrutinib 25 mg/kg/day in drinking water with CAR T
  tumor growth vs CAR T with vehicle alone: significantly (P<0.001) decreased tumor growth
[5]; ibrutinib 25 mg/kg/day in drinking water with anti-CD19 CAR-T cells, p<0.001
  median survival vs suboptimal anti-CD19 CAR T cell dose + vehicle: increased median survival
anti-CD19 CAR T cells [6]; 5000, 500, 50, 5 and 0.5 nM, 3 donors, up to 4 days
  expression of truncated EGFR surrogate marker, activation markers CD25, CD38, CD39, CD95, CD62L and phenotypic markers CCR7, CD62L, CD45RO: no significant effect
anti-CD19 CAR T cells [6]; CD4+ or CD8+ cells cultured in the presence of ibrutinib
  expression levels of CD69, CD107a or PD-1: subtle decrease in expression levels
anti-CD19 CAR T cells [6]; highest (supraphysiological) concentration tested
  percentage of anti-CD19 CAR T cells expressing CD69, CD107a or PD-1: subtle decrease in the percentage
anti-CD19 CAR T cells [6]; over four days after stimulation
  phenotype of cells as central memory (TCM) or effector memory (TEM) subsets (CCR7, CD45RA): did not affect the phenotype
anti-CD19 CAR T cells [7]
  cell numbers and population doublings of anti-CD19 CAR T cells: enhanced cell numbers and population doublings
anti-CD19 CAR T cells [8]; 50 nM
  IFN-γ and IL-2 production: some increase
anti-CD19 CAR T cells [8]; 50 nM, some donors
  cytokine production: modestly increased
anti-CD19 CAR T cells [8]; physiological concentrations of ibrutinib
  cytokine concentrations: did not significantly decrease
[9]
  Cmax: 227 nM
[10]; 50 nM, 16 days of serial stimulation, one patient, P<0.01
  cytolytic activity: increase in cytolytic activity
[10]; 500 nM, 16 days of serial stimulation, each subject
  cytolytic function: increase in cytolytic function
[10]; 50 and 500 nM, 21 day culture, both DLBCL patients
  proliferation of CAR T cells (cell doublings): did not inhibit the proliferation
[11]; CAR+ cell treatment combined with ibrutinib
  tumor cells detected in the blood, bone marrow or spleen vs vehicle alone: significantly fewer tumor cells
[11]; blood, ibrutinib in drinking water
  circulating CAR+ T cells vs CAR+ T cells and vehicle: significant increase
[11]; day 19 post CAR-T cell transfer, p<0.05
  number of CAR-T cells in the blood: significant increase in the number of cells
CAR-expressing T cells; 50 nM, day 18
  gene expression changes: not significant, similar trends
CAR-expressing T cells; day 18 serial stimulation
  expression of HES6, HIC1, LZTFL1, NRIP1, CD38 and RARRES3: downregulation
  expression of MSC: upregulation
  expression of SELL/CD62L: increases
  expression of granzyme A and CD38: decreases
CAR T cells
  CD62L expression: significant increase
